{"source": "patent US11169156B2", "about": "“Long wavelength voltage sensitive dyes” (The Regents of the University of California, priority 2015, dated 2021)", "key": {"[1]": {"details": "in CH3OH; cited from earlier work"}, "[2]": {"test_system": "rat hippocampal neurons", "test": "Effect of dye loading on action potential firing, whole-cell patch clamp without imaging", "format": "cell-based", "details": "neurons with or without 1 μM dye, n=12 and 11", "procedure": "To test if loading of BeRST 1 onto the membrane of neurons has any effect on their action potential firing, ten 500 ms current steps were injected into neurons, in increments of […]. The first action potential from each sweep was analyzed in Clampfit 10 software (Molecular Devices) to give amplitude and kinetic data. The cell capacitance determined by the Clampex software during recording. To evoke single action potentials for electrophysiological and imaging comparisons, short (10 ms) current injections were applied which were 2× the threshold required to evoke a single action potential. Analysis of action potentials was performed using spike detection algorithms in the Clampfit 10 software."}, "[3]": {"test": "Spectroscopic studies (absorbance, emission, quantum yield) in vitro", "format": "physicochemical", "details": "for quantum yield (Φfl): referenced to cresyl violet; for emission maximum: aqueous buffer"}, "[4]": {"test_system": "rat hippocampal neurons", "test": "Imaging of action potentials evoked by extracellular field stimulation in hippocampal neurons", "format": "cell-based", "procedure": "Hippocampi were dissected from embryonic day 18 Sprague Dawley rats (Charles River Laboratory) in cold sterile HBSS (zero Ca^2+, zero Mg^2+). All dissection products were supplied by Invitrogen, unless otherwise stated. Hippocampal tissue was treated with trypsin (2.5%) for 15 min at 37° C. The tissue was triturated using fire polished Pasteur pipettes, in minimum essential media (MEM) supplemented with 5% fetal bovine serum (FBS; Thermo Scientific), 2% B-27, 2% 1M D-glucose (Fisher Scientific) and 1% glutamax. The dissociated cells were plated onto 12 mm diameter coverslips (Fisher Scientific) pre-treated with PDL (as above) at a density of 30,000-40,000 cells per coverslip in MEM supplemented media (as above). Neurons were maintained at 37° C. in a humidified incubator with 5% CO2. At 3 days in vitro (DIV) half of the MEM supplemented media was removed and replaced with Neurobasal media containing 2% B-27 supplement and 1% glutamax. Transfection of genetic tools was carried out using Lipofectamine 3000 at 7 DIV. Functional imaging was performed on mature neurons 13-20 DIV, except electrophysiological experiments which were performed on 12-15 DIV neurons.\nExtracellular field stimulation was delivered by Grass Stimulator connected to a recording chamber containing two platinum electrodes (Warner), with triggering provided through a Digidata 1332A digitizer and pCLAMP 10 software (Molecular Devices). Action potentials were triggered by 1 ms 80 V field potentials delivered at 5 Hz. To prevent recurrent activity the HBS bath solution was supplemented with synaptic blockers 10 μM 2,3-Dioxo-6-nitro-1,2,3, 4-tetrahydrobenzo[f]quinoxaline-7-sulfonamide (NBQX; Santa Cruz Biotechnology) and 25 μM DL-2-Amino-5-phosphonopentanoic acid (APV; Sigma-Aldrich). Functional imaging of BeRST 1 was performed using the EMCCD camera and a 63× objective. BeRST 1 was excited with a 631 nm light (LED; 631 nm, 28 nm bandpass) with an intensity of 127 W/cm^2. Emission from BeRST 1 was collected with a 680/10 nm bandpass emission filter (after passing through a quadruple dichroic mirror (432/38 nm, 509/22 nm, 586/40 nm, 654 nm LP) or for GCaMP6s and ASAP experiments a QUAD filter (quadruple emission filter (430/32 nm, 508/14 nm, 586/30 nm, 708/98 nm) after passing through the quadruple dichroic mirror. Optical sampling rate of BeRST 1 imaging was 0.5-0.53 kHz, except when imaging with ASAP1 (1.25 kHz). Green spectrum genetic tools (GFP, GCaMP6s and ASAP1) were illuminated using 475 nm light (LED; 475 nm, 34 nm bandpass). For functional imaging an intensity of 33 W/cm^2 for GCaMP6s and 200 W/cm^2 for the more weakly fluorescent ASAP1 was used, which is the maximum 475 nm LED intensity for the system. Emission was collected with a 540/50 nm bandpass filter after passing through a 510 nm longpass dichroic. Functional imaging of GCaMP6s and ASAP was performed at 40 Hz and 1.25 kHz, respectively. Images showing cellular morphology were performed by switching to a lower magnification 20× objective in conjunction with either the EMCCD (GCaMP6s/ASAP1) or sCMOS (GFP) camera.\nAnalysis of voltage sensitivity in HEK cells was performed using custom Matlab routines. Briefly, a region of interest (ROI) was selected automatically based on fluorescence intensity and applied as a mask to all image frames. Fluorescence intensity values were calculated at known baseline and voltage step epochs. For analysis of BeRST 1 voltage responses in neurons, regions of interest encompassing cell bodies were drawn in ImageJ and the mean fluorescence intensity for each frame extracted. The photostability of BeRST 1 allowed for the calculation of ΔF/F values by subtracting a mean background value from all raw fluorescence frames, bypassing the noise amplification which arises from subtracting background for each frame. All example traces were not averaged. […]"}, "[5]": {"test_system": "HEK cells", "test": "Voltage sensitivity in HEK cells, whole-cell voltage clamp with fluorescence imaging", "format": "cell-based, Human", "details": "for voltage sensitivity, fractional change in fluorescence: 680 nm emission, n=4 cells", "procedure": "Functional imaging of BeRST 1 was performed using a 20× objective paired with image capture from the EMCCD camera at a sampling rate of 0.5 kHz. BeRST 1 was excited using the 633 nm LED with an intensity of 6.7 W/cm^2. For initial voltage characterization (see, FIG. 4) emission was collection with the QUAD filter and dichroic (see above). For investigation into voltage sensitivity during excitation cross-talk (see, FIG. 11) BeRST 1 was excited by a 633 nm LED as above and 390 nm light (violet LED, 20 nm bandpass) with an intensity of 3.3 W/cm^2 and emission was collected with a 680/10 nm bandpass emission filter.\nAnalysis of voltage sensitivity in HEK cells was performed using custom Matlab routines. Briefly, a region of interest (ROI) was selected automatically based on fluorescence intensity and applied as a mask to all image frames. Fluorescence intensity values were calculated at known baseline and voltage step epochs. For analysis of BeRST 1 voltage responses in neurons, regions of interest encompassing cell bodies were drawn in ImageJ and the mean fluorescence intensity for each frame extracted. The photostability of BeRST 1 allowed for the calculation of ΔF/F values by subtracting a mean background value from all raw fluorescence frames, bypassing the noise amplification which arises from subtracting background for each frame. All example traces were not averaged. For comparisons of action potentials recorded electrophysiologically and optically, imaging traces were analyzed using spike detection algorithms in the Clampfit 10 software (Molecular Devices). For cross-excitation quantification images were background subtracted. ROIs were made by thresholding to the 25% of the maximum pixel intensity to remove non-stained areas. Mean intensity values for stained neurons were calculated.\nFor whole-cell, voltage clamp recordings in HEK 293T cells were held at −60 mV and 100 ms hyper- and de-polarizing steps applied from −100 to +100 mV in 20 mV increments."}, "[6]": {"test_system": "rat hippocampal neurons", "test": "Action potential imaging in patch-clamped (current clamp) hippocampal neurons", "format": "cell-based", "details": "1.8 kHz optical sampling, n=7 cells", "procedure": "Hippocampi were dissected from embryonic day 18 Sprague Dawley rats (Charles River Laboratory) in cold sterile HBSS (zero Ca^2+, zero Mg^2+). All dissection products were supplied by Invitrogen, unless otherwise stated. Hippocampal tissue was treated with trypsin (2.5%) for 15 min at 37° C. The tissue was triturated using fire polished Pasteur pipettes, in minimum essential media (MEM) supplemented with 5% fetal bovine serum (FBS; Thermo Scientific), 2% B-27, 2% 1M D-glucose (Fisher Scientific) and 1% glutamax. […]\nAnalysis of voltage sensitivity in HEK cells was performed using custom Matlab routines. Briefly, a region of interest (ROI) was selected automatically based on fluorescence intensity and applied as a mask to all image frames. Fluorescence intensity values were calculated at known baseline and voltage step epochs. For analysis of BeRST 1 voltage responses in neurons, regions of interest encompassing cell bodies were drawn in ImageJ and the mean fluorescence intensity for each frame extracted. The photostability of BeRST 1 allowed for the calculation of ΔF/F values by subtracting a mean background value from all raw fluorescence frames, bypassing the noise amplification which arises from subtracting background for each frame. […] For cross-excitation quantification images were background subtracted. […] Mean intensity values for stained neurons were calculated. […]"}, "[7]": {"test": "In vitro cross excitation in aqueous buffer (emission scans with differing excitation wavelengths)", "format": "physicochemical", "details": "emission 680 nm", "procedure": "FIG. 12A-C provides for in vitro cross excitation of BeRST 1 and BR. Emission scans of (A) BeRST 1 and (B) BR in aqueous buffer (50 mM TBS, pH 7.5, 0.1% SDS) with differing excitation wavelengths. (C) Relative fluorescence emission intensity at 680 nm vs. excitation wavelength for BeRST 1 (black bars) and BR (grey bars).\nStock solutions of BR and BeRST 1 were prepared in DMSO (1.0-10 mM) and diluted with TBS (50 mM Tris-HCl, pH 7.5, 0.15 M NaCl) solution containing 0.10% (w/w) SDS (1:100 to 1:1000 dilution). UV-Vis absorbance and fluorescence spectra were recorded using a Shimadzu 2501 Spectrophotometer (Shimadzu) and a Quantamaster Master 4 L-format scanning spectrofluorometer (Photon Technologies International). The fluorometer is equipped with an LPS-220B 75-W xenon lamp and power supply, A-1010B lamp housing with integrated igniter, switchable 814 photon-counting/analog photomultiplier detection unit, and MD5020 motor driver. Samples were measured in 1-cm path length quartz cuvettes (Starna Cells). Relative quantum yields were measured in TBS solution containing 0.10% (w/w) SDS or in CH3OH and referenced to cresyl violet in CH3OH, which has a quantum yield of 0.54."}, "[8]": {"details": "aqueous buffer (50 mM TBS, pH 7.5, 0.1% SDS)"}}, "note": "“Also recorded” adds a separate entry of the source."}
{"compound": "cresyl violet", "values": [{"measurement": "quantum yield of reference standard", "setting": "[1]", "value": 0.54}]}
{"compound": "COc1cc(N(C)C)ccc1/C=C/c1ccc(/C=C/c2ccc(C3=C4C=CC(=[N+](C)C)C=C4[Si](C)(C)c4cc(N(C)C)ccc43)c(S(=O)(=O)[O-])c2)cc1", "note": "[BeRST 1, 5-((E)-4-((E)-4-(Dimethylamino)-2-methoxystyryl)styryl)-2-(7-(dimethylamino)-3-(dimethyliminio)-5,5-dimethyl-3,5-dihydrodibenzo[b,e]silin-10-yl)benzenesulfonate]", "values": [{"measurement": "effect on action potential amplitude, duration, rise time, decay time, cellular capacitance", "setting": "[2]", "value": "No difference; also recorded: No statistically significant differences"}, {"measurement": "quantum yield (Φfl)", "setting": "[3]; TBS/SDS aqueous buffer", "value": 0.017}, {"measurement": "emission maximum", "setting": "[3]", "value": 683, "unit": "nm"}, {"measurement": "absorbance / excitation centered at", "setting": "[3]; [8]", "value": 658, "unit": "nm"}, {"measurement": "extinction coefficient at the incident irradiation", "setting": "[3]; at incident irradiation (631 nm BeRST 1, 475 nm VF2.1.Cl)", "value": "150,000"}, {"measurement": "quantum yield (Φfl)", "setting": "[3]; methanol", "value": 0.022}, {"measurement": "change in fluorescence per action potential", "setting": "[4]; field stimulation, GFP-expressing cells, n=5 pairs of cells", "value": "8.7±0.8", "unit": "% ΔF/F"}, {"measurement": "change in fluorescence per action potential", "setting": "[4]; field stimulation, cells not expressing GFP", "value": "approximately 9.2 % ΔF/F"}, {"measurement": "optical response for action potentials", "setting": "[4]; field stimulation, n=5 cells", "value": 17.8, "unit": "% ΔF/F"}, {"measurement": "voltage transient for a single evoked action potential", "setting": "[4]; neuron expressing GCaMP6s and stained with BeRST 1", "value": "approximately 15 % ΔF/F"}, {"measurement": "increase in relative fluorescence to evoked train of action potentials", "setting": "[4]; neurons expressing ASAP1 and stained with BeRST 1, S.E.M., n=4 cells", "value": "15%±2.1%"}, {"measurement": "resolution of individually evoked action potentials in trains", "setting": "[4]; trains at 5, 10 and 20 Hz", "value": "visible in the BeRST 1 channel at all frequencies"}, {"measurement": "voltage sensitivity", "setting": "[5]; HEK cells loaded with 1 μM dye, whole-cell voltage clamp, n=15 cells", "value": "approximately 24%±5%"}, {"measurement": "voltage sensitivity, fractional change in fluorescence", "setting": "[5]; excited at 390 nm (3.3 W/cm^2)", "value": 28, "unit": "% ΔF/F per 100 mV"}, {"measurement": "voltage sensitivity, fractional change in fluorescence", "setting": "[5]; excited at 631 nm (6.7 W/cm^2)", "value": 26, "unit": "% ΔF/F per 100 mV"}, {"measurement": "linearity of fluorescence response to membrane potential", "setting": "[5]; range spanning ±100 mV", "value": "linear"}, {"measurement": "FWHM duration of action potentials, optical record", "setting": "[6]; electrophysiological record 1.65±0.15 ms", "value": "1.97 ± 0.14", "unit": "ms"}, {"measurement": "optical response for action potentials", "setting": "[6]; current clamp evoked action potentials", "value": "approximately 9.5 % ΔF/F"}, {"measurement": "emission with 390 nm excitation, share of full emission", "setting": "[7]", "value": 35, "unit": "%"}, {"measurement": "emission with 475 nm excitation compared to excitation at 630 nm", "setting": "[7]", "value": "~7", "unit": "%"}]}
{"compound": "CN(C)c1ccc2c(c1)[Si](C)(C)C1=CC(=[N+](C)C)C=CC1=C2c1ccccc1S(=O)(=O)[O-]", "note": "[BR, 2-(7-(Dimethylamino)-3-(dimethyliminio)-5,5-dimethyl-3,5-dihydrodibenzo[b,e]silin-10-yl) benzenesulfonate]", "values": [{"measurement": "quantum yield (Φfl)", "setting": "[3]; TBS/SDS aqueous buffer", "value": 0.24}, {"measurement": "emission maximum", "setting": "[3]", "value": 681, "unit": "nm"}, {"measurement": "absorbance / excitation centered at", "setting": "[3]; [8]", "value": 658, "unit": "nm"}, {"measurement": "extinction coefficient", "setting": "[3]; [8]", "value": "150,000 M^−1 cm^−1"}, {"measurement": "quantum yield (Φfl)", "setting": "[3]; methanol", "value": 0.32}, {"measurement": "change in absorbance with pH (spirocyclization)", "setting": "[3]; pH 2.5 to 9", "value": "no change in absorbance"}, {"measurement": "absorbance vs. solvent dielectric constant (solvatochromism)", "setting": "[3]; ε=6 (10% water/dioxane v/v) to ε=71 (90% water/dioxane v/v)", "value": "remains unchanged"}, {"measurement": "emission with 390 nm excitation, share of full emission", "setting": "[7]", "value": 16, "unit": "%"}, {"measurement": "emission with 475 nm excitation compared to excitation at 630 nm", "setting": "[7]", "value": "approximately 1%"}]}
